Columns and labels:
[1] = test system: HIV-infected normal human blood lymphocytes (PBLs); test: HIV test in infected human blood lymphocytes (PBLs), syncytia formation, method of Pauwels et al.; assay type: cell-based; conditions: concentration at which 50% (about 10 syncytia) of the virus-induced syncytia were suppressed, day 3 to 6 after infection
Procedure: The HIV test was carried out with slight modifications by the method of Pauwels et al. (Journal of Virological Methods 20 (1988) 309-321).
Normal human blood lymphocytes (PBLs) were concentrated by means of Ficoll-Hypaque and stimulated with phytohaemagglutinin (90 μg/ml) and interleukin 2 (40 U/ml) in RPMI 1640 and 20% foetal calf serum. For infection with the infectious HIV, PBLs were pelleted and the cell pellet was then suspended in 1 ml of HIV virus adsorption solution and incubated at 37° C. for 1 hour.
The virus adsorption solution was centrifuged and the infected cell pellet was taken up in growth medium such that a concentration of 1×10^5 cells per ml was established. The cells infected in this way were pipetted into the wells of 96-well microtitre plates at a concentration of 1×10^4 cells/well. […]
The test batches were incubated at 37° C. until, in the untreated virus control, the syncytia formation typical for HIV occurred (between day 3 and 6 after infection), which was then evaluated microscopically.
The IC-50 values were determined as the concentration of the treated and infected cells at which 50% (about 10 syncytia) of the virus-induced syncytia were suppressed by treatment with the compound according to the invention.

[2] = molecular target: T1, HIV protease (Human immunodeficiency virus type 1 group M subtype B, UniProt P04585); test: HIV-specific protease enzyme test (RP-HPLC analysis of synthetic peptide cleavage); assay type: biochemical; conditions: purified HIV protease, synthetic peptide imitating a Gag precursor cleavage site; concentration causing 50% inhibition of protease activity
T1 construct: purified HIV protease was incubated with synthetic peptide
Procedure: This is confirmed using an HIV-specific protease enzyme test.
The results for the examples listed below were determined by the HIV test system described in the following literature reports [cf. Hansen, J., Billich, S., Schulze, T., Sukrow, S. and Molling, K. (1988), EMBO Journal, Vol. 7, No. 6, pages 1785-1791]: purified HIV protease was incubated with synthetic peptide which imitated a cleavage site in the Gag precursor protein and represented an in vivo cleavage site of the HIV protease. The resulting cleavage products of the synthetic peptide were analysed by means of reverse phase high performance liquid chromatography (RP-HPLC). The IC50 values given relate to the substance concentration which causes a 50% inhibition of protease activity under the abovementioned test conditions.

| SMILES | IC50 [1] | IC50 [2] |
| --- | --- | --- |
| CCOP(=O)(OCC)C1CCCN1C(=O)C[C@H](O)[C@H](CC1CCCCC1)NC(=O)[C@H](Cc1ccccc1)NC(=O)Nc1cccc2ccccc12 (single isomer, unassigned) [Example 16, Diethyl 1-{(3S,4S)-5-cyclohexyl-3-hydroxy-4-(1-napthylaminocarbonyl)phenylalaninyl]aminopentanoyl}-(2R or S)-2-(pyrrolidinyl)phosphonate] | 4.3 µM |  |
| CCOP(=O)(OCC)C1CCCN1C(=O)C[C@H](O)[C@H](CC1CCCCC1)NC(=O)[C@@H](NC(=O)[C@H](Cc1cccc2ccccc12)CS(=O)(=O)C(C)(C)C)C(C)C (stereo partly drawn) [Example 14, Diethyl 1-{(3S,4S)-4-[(2S)-3-(tert-butylsulphonyl)2-(1-naphthylmethyl)propanoyl]-valinylamino-5-cyclohexyl-3-hydroxypentanoyl}-(2RorS)-2-(pyrrolidinyl)phosphonate] |  | 0.5 µM |
| CCOP(=O)(OCC)C1CCCN1C(=O)C[C@@H](O)[C@H](CC1CCCCC1)NC(=O)OC(C)(C)C (stereo partly drawn) [Example 28, Diethyl 1-{(3R,4S)-4-[(tert-butoxycarbonyl)amino]-5-cyclohexyl-3-hydroxypentanonyl]-(2R,S)-2-(pyrrolidinyl)phosphonate] |  | 10 µM |

From patent publication US5147865A, “Phosphonopyrrolidine- and piperidine-containing pseudopeptides of the statin type, a process for their preparation and their use as medicaments against retroviruses” (Bayer Aktiengesellschaft, priority 1990, dated 1992)
